This is an account of results in US10278931B2, “Composition for treatment of inflammatory bowel disease and atopic dermatitis” (INNOPHARMASCREEN INC., priority 2015, dated 2019).

The target in assay [1] is T1, caspase-1 (Homo sapiens, UniProt P29466).
T1 construct: a caspase-1 assay was conducted using cell extracts; endogenous in cells; host or cells: HMC-1 (human mast cells)
T1 sequence (P29466 120-297 limits assumed): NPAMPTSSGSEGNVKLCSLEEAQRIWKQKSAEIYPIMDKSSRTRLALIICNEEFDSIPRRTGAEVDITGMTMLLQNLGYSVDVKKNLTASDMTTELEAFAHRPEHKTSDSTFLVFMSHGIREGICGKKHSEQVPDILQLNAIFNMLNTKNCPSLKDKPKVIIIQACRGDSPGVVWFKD
T1 sequence (P29466 317-404 limits assumed): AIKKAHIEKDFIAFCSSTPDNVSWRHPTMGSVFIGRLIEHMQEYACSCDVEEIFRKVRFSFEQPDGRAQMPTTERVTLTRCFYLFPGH
As to the kind of experiment: Caspase-1 assay using HMC-1 cell extracts. In kind it is cell-based.

The subject of a further assay is IL-6, IL-22, IL-33. As to the kind of experiment: Western blotting of cytokines in DNCB skin tissue lysates. In kind it is in vivo, balb/c mice. The settings on record: changed slightly. The protocol: E. Western blotting analysis: Western blotting analysis was performed to verify differences in protein expression in the above antibody array experiment. Proteins from the tissue lysates were separated on SDS-PAGE. The electrophoresed proteins were then transferred onto the PVDF membranes. After washing with PBST solution, the PVDF membranes were blocked with 5% skim milk powder for 1 hour and then reacted with a primary antibody overnight at 4° C. The membranes were washed with PBST solution and reacted with a secondary antibody (anti-IgG) conjugated with horseradish peroxidase (HRP) for 1 hour at room temperature and examined with a photoresist film.
(In general: Immunoblotting shows a protein as a band on a membrane.)

The subject of assay [2] is TSLP secretion from human mast cells (HMC-1 cells). The assay can be described thus: TSLP secretion ELISA in PMACI-stimulated mast cells. Format: cell-based. The protocol:
(1) Cell culture: A human mast cell line (HMC-1) was cultured in an IMDM supplemented with 10% FBS at 37° C. and 5% CO2. Candidate materials were dissolved in DMSO, and then filtered using a 0.22 μm filter. The resulting candidate materials were diluted with DMSO and the HMC-1 cells were treated therewith.
(3) Enzyme-linked immunosorbent assay (ELISA): Mast cells (3×10^6 cells/ml) were stabilized for 1 hour, and then treated with 0.1 μM, 1 μM, and 10 μM of candidate materials, followed by treatment with PMACI for 8 hours. The mast cells were centrifuged to obtain supernatants. To measure the amount of TSLP secreted from the cells, ELISA was used. The ELISA was performed in 96-well plates coated with 1 μg/well of TSLP capture Ab. The coated plates were washed twice with PBS. The cells were treated with PBS containing 10% FBS for 2 hours. Thereafter, the cells were washed with PBS containing 0.05% Tween-20 (Sigma), and recombinant TSLP was used to draw a standard curve. Subsequently, the plates were exposed to a biotinylated-TSLP antibody, Avidin peroxidase, an ARTS substrate containing 30% H2O2, and then measured at 405 nm.
(ELISA stands for enzyme-linked immunosorbent assay.)

In assay [3] the target is T2, caspase-1 (Mus musculus, UniProt P29452).
T2 construct: using the dorsal skin of DNCB-applied balb/c mice; from tissue; host or cells: dorsal skin of BALB/c mice
T2 sequence (P29452 119-402): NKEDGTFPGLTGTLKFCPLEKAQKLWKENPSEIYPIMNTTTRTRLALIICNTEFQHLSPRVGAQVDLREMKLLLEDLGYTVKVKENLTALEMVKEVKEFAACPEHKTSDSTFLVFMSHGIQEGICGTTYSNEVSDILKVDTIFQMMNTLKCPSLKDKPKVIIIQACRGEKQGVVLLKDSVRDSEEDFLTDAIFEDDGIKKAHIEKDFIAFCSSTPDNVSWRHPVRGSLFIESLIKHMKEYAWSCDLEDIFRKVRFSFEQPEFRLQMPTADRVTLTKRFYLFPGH
As to the kind of experiment: Caspase-1 assay in dorsal skin of DNCB-applied mice. In kind it is in vivo. The settings on record: DNCB-applied balb/c mice, concentration-dependent. The protocol: (§1) (4) Caspase-1 assay: Recombinant caspase-1 and a drug were allowed to react, and then activity measurement was performed using a caspase-1 assay kit (R&D Systems Inc., Minneapolis, Minn., USA).
B. Dermatitis induction: Hairs on the back of each mouse were removed and maintained for 24 hours, and then 150 μl of a 1% 2,4-dinitrochlorobenzene(DNCB) solution (acetone: olive oil=3:1) was applied on the hair-removed site once a week for 3 weeks. After week 3, the DNCB solution was applied on the site twice a week for 3 weeks to induce atopic dermatitis.
C. Treatment: Mice were divided into 6 groups, and 0.5% DMSO was applied on animals as a control and 200 μl of each of 0.01 μM, 0.1 μM, and 1 μM test material was applied on animals as experimental groups for 3 weeks. 50 μl of 0.1% dexamethasone dissolved in a crude alcohol was applied on animals as a positive control at intervals of 2 days.

Assay [4] deals with T3, human recombinant caspase-1 (Homo sapiens, UniProt P29466).
T3 sequence (P29466 120-404): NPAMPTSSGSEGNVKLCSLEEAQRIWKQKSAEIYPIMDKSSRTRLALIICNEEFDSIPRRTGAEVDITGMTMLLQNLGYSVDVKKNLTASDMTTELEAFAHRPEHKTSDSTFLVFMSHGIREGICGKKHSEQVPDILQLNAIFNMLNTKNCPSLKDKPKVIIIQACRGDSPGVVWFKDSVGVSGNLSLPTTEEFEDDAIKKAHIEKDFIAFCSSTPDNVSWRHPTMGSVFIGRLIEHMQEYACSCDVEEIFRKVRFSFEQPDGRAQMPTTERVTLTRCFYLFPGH
The assay can be described thus: Recombinant caspase-1 activity assay (kit). In kind it is biochemical. Conditions: caspase-1 assay kit. The protocol: as §1
Recombinant caspase-1 and a drug were allowed to react, and then activity was measured using a caspase-1 assay kit (R&D Systems Inc., Minneapolis, Minn., USA).

In the case of `Cl.N=C(N)NC(=N)Nc1ccc(Cl)cc1` [IPS-07001], on caspase-1 [1], the “caspase-1 activity in HMC-1 cells” value was “significantly inhibited”. Moreover, in the assay on IL-6, IL-22, IL-33, the “IL-6 protein expression (western blotting)” value is “decreased”, the “IL-22 protein expression (western blotting)” value is “decreased” and the “IL-33 protein expression (western blotting)” value is “decreased”. Moreover, the TSLP production entry in assay [2] (HMC-1 cells, concentration of 0.011 μM (so in the source), non-cytotoxic) is “significantly regulated”. In addition, the “TSLP secretion from mast cells” value in assay [2] (PMACI-stimulated HMC-1 cells, ELISA) is “significantly inhibited”. Besides, the “caspase-1 activity in dorsal skin” value at caspase-1 [3] was “significantly inhibited”. Moreover, the “recombinant caspase-1 activity” value in assay [4] is reported as “significantly inhibited”.
